Tests used:
cerebral district = assay: Cerebral perfusion in the rabbit (cerebral vasodilative activity); assay type: in vivo; conditions: 0.9 uM i.a.; for Area mm^2 / Difference in pressure / Δ: perfusion of the cerebral district
Procedure: The cerebral vasodilative activity of PU 122 in comparison with Flunarizine was tested by the method of the cerebral perfusion in the rabbit according to the procedure of Von P. Vaupel e H. Hutten (1980), by measurement of the decrease of the peripheral resistances in the cerebral district.
Said changement was determined by means of a transducer, by measuring the hematic pressure at the cerebral level and scoring the lasting of action of the compound under test.
The two test compounds were administered by intraarterial route at the dosage of 0.9 uM, in a volume of 0.2 ml for each animal.

Rat hind quarters = Rat hind quarters perfused with hyperkaliemic tyrode (vasodilative activity); conditions: 5 x 10^-5 M; for Perfusion pressure after 10' / Perfusion pressure basal: hyperkaliemic tyrode; for Perfusion pressure Δ: basal minus after 10'
Source text: The vasodilative activity of PU 122 in comparison with Flunarizine was further evaluated according to the procedure described by F.N. Fastier and F.H. Smirk, (J. Pharm. Exp. Therap. 89, 256-270; […]), by measuring the antagonist action of the test compound against hyperkaliemia induced vasoconstric- tion.
The compounds under test were used at 5.10^-5 M concentration.

rat brain synaptosomes = assay: 45 Ca uptake in synaptosomial preparations (Ca antagonist activity); assay type: biochemical; conditions: concentration not given
[1] = test system: human platelet rich plasma (PRP); assay: Platelet aggregation induced by ADP; assay type: cell-based; conditions: compared with acetylsalicylic acid
Procedure: The inhibitory effect on platelet aggregation induced BY ADP on human platelet rich plasma (PRP) was evaluated for PU 122 in comparison with acetylsalicy lie acid, according to the procedure described by G.V.R. Born (Nature, 194, 927; 1962).

| SMILES | Lasting of the effect (cerebral district) [min] | Area mm^2 (cerebral district) [mm^2] | Difference in pressure (cerebral district) | Δ (cerebral district) | Perfusion pressure after 10' (Rat hind quarters) | Perfusion pressure Δ (Rat hind quarters) | Perfusion pressure basal (Rat hind quarters) | Ca antagonist activity (effect on 45 Ca uptake) (rat brain synaptosomes) [%] | IC50 platelet antiaggregating activity [1] |
| --- | --- | --- | --- | --- | --- | --- | --- | --- | --- |
| COc1ccc(C=CCN2CCN(C(c3ccc(F)cc3)c3ccc(F)cc3)CC2)cc1OC.Cl.Cl [PU 122, 1-(4,4'-Difluorobenzhydryl)-4-(3,4-dimethoxycinnamyl)piperazine dihydrochloride] | 16.70 | 487.14 | 18.75 | 29.17 | 90.00 | 105.00 | 195.00 | -16.4 | substan tially better than that of acetylsalicylic acid |
| Fc1ccc(C(c2ccc(F)cc2)N2CCN(C/C=C/c3ccccc3)CC2)cc1 [Flunarizine, reference compound] | 12.50 | 314.2 | 10.25 | 25.12 | 95.00 | 80.00 | 175.00 |  |  |

Reference: patent publication EP0152799A1, “Compounds having peripheral calcium antagonist, anticonvulsive and eumetabolic activity, processes for the preparation thereof and pharmaceutical compositions containing them” (PULITZER ITALIANA S.p.A., priority 1984, dated 1985)
